In patent publication US20110245242A1, “Heterocyclically Substituted Anilinopyrimides” (Bayer CropScience AG, priority 2008, published 2011):

How the values were obtained:
physchem = type: physicochemical; settings: pH 7.8
Protocol: The log P values were measured in accordance with EEC Directive 79/831 Annex V.A8 by HPLC (High Performance Liquid Chromatography) on reversed-phase columns (C 18) using the methods below: [c] The LC-MS determination in the neutral range was carried out at pH 7.8 using the mobile phases 0.001 molar aqueous ammonium bicarbonate solution and acetonitrile linear gradient from 10% acetonitrile to 95% acetonitrile.

[1] = log P by HPLC on reversed-phase columns (C 18), method [a], acidic range pH 2.3; type: physicochemical; settings: for chromatographic logP: pH 2.3, log P (pH 2.3)
Protocol: The log P values were measured in accordance with EEC Directive 79/831 Annex V.A8 by HPLC (High Performance Liquid Chromatography) on reversed-phase columns (C 18) using the methods below: [a] The determination was carried out in the acidic range at pH 2.3 using the mobile phases 0.1% aqueous phosphoric acid and acetronitrile linear gradient from 10% acetonitrile to 95% acetronitrile.

[2] = log P by LC-MS, method [b], acid range pH 2.7; type: physicochemical; settings: pH 2.7
Protocol: The log P values were measured in accordance with EEC Directive 79/831 Annex V.A8 by HPLC (High Performance Liquid Chromatography) on reversed-phase columns (C 18) using the methods below:
[b] The LC-MS determination in the acid range was carried out at pH 2.7 using the mobile phases 0.1% aqueous formic acid and acetonitrile (contains 0.1% formic acid)
linear gradient from 10% acetonitrile to 95% acetonitrile.

Fusarium proliferatum = assay: Production of Fumonisin FB1 by Fusarium proliferatum (microtitre plates; FB1 by HPLC-MS/MS, growth by OD620); type: cell-based; settings: for pI50 Fum: FB1 concentration in liquid medium after 6 days at 20° C., HPLC-MS/MS; for pI50 growth: OD620 at the beginning and after 6 days

SMILES	log p (physchem)	log p ([1]; pH 2.3)	pI50 Fum (Fusarium proliferatum)	pI50 growth (Fusarium proliferatum)	log p [2]	further results
O=C1CCCN1c1cccc(Nc2ncc(F)c(NC3CCC3)n2)c1 [Example 43]	2.32[c]	1.31[a];				
CC(C)OC(=O)N(c1cccc(N2CCCC2=O)c1)c1ncc(Cl)c(NC2CC2)n1 [Example 329, Isopropyl [5-chloro-4-(cyclopropylamino)pyrimidin-2-yl][3-(2-oxopyrrolidin-1-yl)phenyl]carbamate]						chromatographic logP (physchem): 2.55; chromatographic logP [2]: 2.24; chromatographic logP [1]: 2.24
CC(C)[C@H]1COC(=O)N1c1cccc(Nc2ncc(Cl)c(NC3CC3)n2)c1 [Example 76]			6.2	5.6	2.47[b]	
CC1CC1Nc1nc(Nc2cccc(N3CCCC3=O)c2)ncc1C(F)(F)F (stereo not drawn) [Example 219]			6.3	5.5	2.79[b]	
CC1CCC(=O)N1c1cccc(Nc2ncc(Br)c(NC3CCC3)n2)c1 (stereo not drawn) [Example 36]			6.2	5.3	1.97[b]	
CC1CC(=O)N(c2cccc(Nc3ncc(Br)c(NC4CCC4)n3)c2)C1=O (stereo not drawn) [Example 73]			6.4	5.8	1.9[b]	
CC(C)Nc1nc(Nc2cccc(N3CCCC3=O)c2)ncc1Cl [Example 22]	2.64[c]	1.52[a];				
CC1COC(=O)N1c1cccc(Nc2ncc(Cl)c(NC3CC3(C)C)n2)c1 (stereo not drawn) [Example 120]	3.12[c];	2.15[a];			2.15[b]	
CN1CCN(c2cccc(Nc3ncc(Cl)c(NC4CC4(C)C)n3)c2)C1=O (stereo not drawn) [Example 313]	3.06[c];	1.93[a];			1.93[b]	
COC(=O)C1CC(=O)N(c2cccc(Nc3ncc(Cl)c(NC4CC4)n3)c2)C1 (stereo not drawn) [Example 137]			5.7	5.1	1.52[b]	
O=C1CCCN1c1cc(Nc2ncc(Cl)c(NCC(F)F)n2)ccc1F [Example 51]	2.15[c]	1.72[a];				
CC(C)Nc1nc(Nc2ccc(N3CCCC3=O)cc2)ncc1Cl [Example 21]	2.56[c]	1.44[a];				
CSCC(C)(C)Nc1nc(Nc2cccc(N3CCCC3=O)c2)ncc1Cl [Example 41]	3.26[c]	2.17[a];				
CCOC(=O)N(c1cccc(N2CCCC2=O)c1)c1ncc(Cl)c(NC2CC2)n1 [Example 330, Ethyl [5-chloro-4-(cyclopropylamino)pyrimidin-2-yl][3-(2-oxopyrrolidin-1-yl)phenyl]-carbamate]						chromatographic logP (physchem): 2.24; chromatographic logP [2]: 2.04; chromatographic logP [1]: 2.04
COC1=CC(=O)N(c2cccc(Nc3ncc(Cl)c(NC4CC4)n3)c2)C1 [Example 237]	2.45[c]	1.55[a];				
CC(Nc1nc(Nc2cccc(N3CCCC3=O)c2)ncc1C(F)(F)F)C(F)(F)F (stereo not drawn) [Example 220, 1-[3-({5-(Trifluoromethyl)-4-[(1,1,1-trifluoropropan-2-yl)amino]pyrimidin-2-yl}amino)phenyl]-pyrrolidin-2-one]						chromatographic logP (physchem): 3.05; chromatographic logP [2]: 3.08; chromatographic logP [1]: 3.08
O=C1OCCN1c1ccc(Nc2ncc(I)c(NC3CC3)n2)cc1 [Example 11]	2.48[c]	1.41[a];				
O=C1CCCN1c1ccc(Nc2ncc(Cl)c(NCC(F)(F)F)n2)cc1 [Example 9]	2.34[c]	1.96[a];				
CC1CCN(Cc2cccc(Nc3ncc(Cl)c(N(C)C4CC4)n3)c2)C1=O (stereo not drawn) [Example 233]	3.25[c]	2.5[a];				
O=C1OCCN1c1cccc(Nc2ncc(C(F)(F)F)c(NC3CCC3)n2)c1 [Example 194]			6.1	5.4	2.58[b]	
CC1COC(=O)N1c1cccc(Nc2ncc(Br)c(NCC3CC3)n2)c1 (stereo not drawn) [Example 131]			6	5.3	1.75[b]	
CC1(C)CC(=O)N(c2cccc(Nc3ncc(Br)c(NC4CC4)n3)c2)C1=O [Example 28]			6.2		1.99[b]	
O=C1CCC(CO)N1c1cccc(Nc2ncc(Br)c(NC3CC3)n2)c1 (stereo not drawn) [Example 79]	1.65[c]	1.04[a];				
CN(c1nc(Nc2cccc(N3C(=O)CC(C)(C)C3=O)c2)ncc1Cl)C1CC1 [Example 177]			6.1	5.7	2.55[b]	
CC(=O)N(c1cccc(N2CCCC2=O)c1)c1ncc(Cl)c(NCC2CC2)n1 [Example 184]	2.38[c];				2.35[b]	log P (pH 2.3) ([1]; pH 2.3): 2.35
CC1(C)CC(=O)N(c2cccc(Nc3ncc(C(F)(F)F)c(NCC4CC4)n3)c2)C1=O [Example 196]			5.3	4.8	2.81[b]	
COC1=CC(=O)N(c2cccc(Nc3ncc(Br)c(NC4CC4)n3)c2)C1 [Example 238]	2.65[c]	1.77[a];				
